Results published in patent US6559133B2, “Use of flavone 8-acetic acid in vascular and cardiovascular interventions and acute coronary syndromes” (priority 2000, dated 2003).

How the values were obtained:
[1] = system: deeply injured porcine carotid artery; assay: Platelet and fibrin(ogen) deposition and mural thrombus after deep arterial injury by balloon angioplasty; type: in vivo, pig
Procedure: (§1) Twenty normal pigs of Babcock 4-way cross stock (a mixture of Landrace, Yorkshire, Hampshire, and Durock breeds) approximately 4 months old with a mean weight of 40±1 kg (approximately 1 m^2 body surface area) (P. L. Altman & D. S. Dittmer, “Metabolism” in Biological Handbooks (Federation of American Societies for Experimental Biology, Bethesda, Md., 1968), pp. 346-348), were obtained from local farmers. […] Loading dose and maintenance infusion were calculated based on preliminary pharmacokinetic experiments in pigs.
The model of deep arterial injury in the porcine carotid artery has been described in detail previously (P. M. Steele et al., “Balloon Angioplasty: Natural History of the Pathophysiologic Response to Injury in a Pig Model,” Cir. Res. 57: 105-112 (1985); M. Heras et al., “Hirudin, Heparin, and Placebo During Deep Arterial Injury in the Pig. The in Vivo Role of Thrombin in Platelet-Mediated Thrombosis,” Circulation 82: 1476-1484 (1990); J. Y. T. Lam et al., “Is Vasospasm Related to Platelet Deposition? Relationship in a Porcine Preparation of Arterial Injury in Vivo,” Circulation 75: 243-248 (1987)). Autologous platelets were labeled with […] of ^111Indium-tropolone and reinjected together with […] of ^125Iodine-labeled porcine fibrinogen on the day prior to the procedure M. Heras et al., “Hirudin, Heparin, and Placebo During Deep Arterial Injury in the Pig. The in Vivo Role of Thrombin in Platelet-Mediated Thrombosis,” Circulation 82: 1476-1484 (1990); J. Y. T. Lam et al., “Is Vasospasm Related to Platelet Deposition? Relationship in a Porcine Preparation of Arterial Injury in Vivo,” Circulation 75: 243-248 (1987); J. Mruk et al., “Does Anti-Thrombotic Therapy Influence Residual Thrombus After Thrombolysis of Platelet-Rich Thrombus?,” Circulation 93: 792-799 (1996)). On the day of surgery, the pigs were sedated with 1 g intramuscular ketamine (Ketaset, Bristol Laboratories, Syracuse, N.Y.), intubated and mechanically ventilated with room air (Harvard respirator, Harvard Apparatus, South Natick, Mass.). Anesthesia was maintained with a continuous infusion of etomidate (Abbott Laboratories, North Chicago, Ill.) 40 mg/l, fentanyl (Elkins-Sinn, Inc., Cherry Hill, N.J.) 10 mg/l, and ketamine 1,000 mg/l, at about 5 ml/minute. The ECG and intra-arterial pressure were continuously monitored throughout the procedure.
The left femoral vein and artery and the right femoral vein were dissected. A 9 F sheath was placed in the left femoral artery, and 14 gauge angiocaths were inserted in the left and right femoral veins. […] All the lines for blood sampling were continuously flushed with 0.9% saline. […]

[2] = system: human platelet-rich plasma; conditions: cited from earlier work
[3] = FAA pharmacokinetics and plasma levels in pigs (HPLC); type: in vivo, pig
Procedure: as §1
(§2) All blood samples were collected with the 2-syringe technique (0.13 M trisodium citrate as anticoagulant; anticoagulant:blood=1:10). […] Platelet count, hematocrit, aPTT, and fibrinogen were determined using standard laboratory methods (Mayo Clinic, Clinical Laboratories). […] Assays were performed as a single batch. The method of determination of FAA in plasma was that of L. Malspeis (personal communication). Briefly, plasma (0.25-0.50 ml) was diluted to 1 ml with 0.5 ml of 0.5 M sodium acetate (pH 3.0) and normal saline. After addition of diethyl ether (4 ml) tubes were shaken on a mechanical shaker for 15 minutes. Following low speed centrifugation, the ether phase was evaporated to dryness under a stream of nitrogen and the residue dissolved in mobile solvent prior to HPLC analysis. Samples were analyzed by reversed-phase HPLC on an IBM C18 (10 micron) column with a mobile solvent of methanol/water mixture. Detection was by UV absorbance at 254 nm. Standard curves were prepared by adding known amounts of FAA to blood blank plasma and analyzing as described above.
The intravenous bolus and continuous infusion doses to maintain a plasma concentration of 500 μg/ml calculated from these values, were 5.5 gm/m^2 and 140 mg/min/m^2, respectively.

[4] = Laboratory tests: aPTT and ear bleeding time; type: in vivo, pig
Procedure: The left femoral vein and artery and the right femoral vein were dissected. A 9 F sheath was placed in the left femoral artery, and 14 gauge angiocaths were inserted in the left and right femoral veins. […] All the lines for blood sampling were continuously flushed with 0.9% saline.
as §2

[5] = system: porcine common carotid arteries; assay: Vasoconstriction immediately distal to the dilatation site, from carotid angiograms; type: in vivo, pig; conditions: mean±SEM; p<0.001 vs placebo
Procedure: An 8 mm×3 cm polyethylene angioplasty catheter (Blue Max, Medi-tech, Watertown, Mass.) was advanced under fluoroscopic guidance to the left and then to the right common carotid arteries for arterial dilatation. Angioplasty was performed 30 minutes after starting treatment, between the first and third cervical vertebrae, using a standardized procedure (5 inflations of 30 seconds duration at 7 atmospheres, with 60 seconds between inflations). Carotid angiography was performed by injecting 6 ml of ionic contrast material (Renografin 76, Squibb, Princeton, N.J.) just prior to carotid dilatation, using a catheter (8 F) with a metal ring of known dimension (Cordis Corporation, Miami, Fla.). Spot films were also taken during balloon dilatation. […]
The severity of localized vasoconstriction was determined immediately distal to the dilatation site from angiograms of the common carotid arteries obtained before and after the dilatation procedure. Computer-assisted planimetry was used to measure the mean maximal narrowing in lumen diameter before and after the procedure, expressed as a percentage of the respective arterial dimension before dilatation (J. Y. T. Lam et al., “Is Vasospasm Related to Platelet Deposition? Relationship in a Porcine Preparation of Arterial Injury in Vivo,” Circulation 75: 243-248 (1987)).

[6] = system: solid tumors in the mouse; conditions: mice; cited from earlier work

- concentration at 30 min ([3]; Babcock 4-way cross (Landrace, Yorkshire, Hampshire, Durock), pig, plasma, intravenous, 30 minutes after starting bolus 5.5 g/m^2 plus infusion 0.14 g/m^2/minute): 515 ± 23 µg/mL
- Plasma level of FAA at the end of the procedure ([3]; bolus 5.5 g/m^2 plus infusion 0.14 g/m^2/minute): 575 ± 36 µg/mL
- half-life ([3]; pig, plasma, two animals, intravenous bolus 1 gm/m^2, one compartment open model): 27.9 min
- Plasma clearance ([3]; two animals, intravenous bolus 1 gm/m^2, one compartment open model): 279 ml/min/m^2
- Bleeding time after FAA in 4 of the animals ([4]; 4 of 5 animals, 210 seconds = 2 standard deviations above the mean laboratory value): more than 210 seconds
- Bleeding time after FAA ([4]; 5 animals, 30 minutes after starting infusion, before FAA 157±29 seconds): 522 ± 123 s
SMILES: O=C(O)Cc1cccc2c(=O)cc(-c3ccccc3)oc12 [FAA, flavone-8-acetic acid]
- Fibrin(ogen) deposition ([1]; deeply injured segments, mean±SEM, p=0.08 vs placebo): 40±8 ×10^12 molecules/cm^2
- Incidence of very small mural thrombi, treated pigs ([1]; per animal, p=0.005, large thrombi in all placebo pigs): 40%
- Incidence of very small thrombi, deeply injured segments ([1]; per deeply injured segment, placebo 85% large thrombi): 30%
- Platelet deposition in deeply injured segments ([1]; pigs, FAA bolus 5.5 g/m^2 then infusion 0.14 g/m^2/minute, mean±SEM, p=0.001 vs placebo): 13±3 ×10^6/cm^2
- Ristocetin-induced platelet aggregation (vWF-GP Ibα-dependent) ([2]; FAA administered to patients with cancer): inhibited
- Aggregation induced by ADP, collagen, arachidonic acid and adrenalin ([2]; ex vivo and in vitro, human platelet-rich plasma): not inhibited
- Plasma ristocetin cofactor activity ([2]; human): unchanged
- Vasoconstriction immediately distal to the area of dilatation [5]: 15±3%
- Implantation of solid tumors [6]: inhibits implantation of solid tumors in mice
